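All cell lines were grown in 96-well plates and treated with compound for 48 hours. At the GI50, growth is halved. TGI marks complete inhibition of growth.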
What was measured:
Assay in all cases: growth of human tumour cells (NCI), 48 h
T-47D breast = test system: T-47D breast
SF-295 CNS = test system: SF-295 CNS
SW-620 colon = test system: SW-620 colon
786-0 renal = test system: 786-0 renal
OVCAR-4 ovarian = test system: OVCAR-4 ovarian
U251 CNS = test system: U251 CNS
KM12 colon = test system: KM12 colon
OVCAR-3 ovarian = test system: OVCAR-3 ovarian
MOLT-4 leukemia = test system: MOLT-4 leukemia
SN12C renal = test system: SN12C renal
NCI-H23 lung = test system: NCI-H23 lung
HOP-92 NSCLC = test system: HOP-92 NSCLC
RPMI-8226 leukemia = test system: RPMI-8226 leukemia
LOX IMVI melanoma = test system: LOX IMVI melanoma
COLO 205 colon = test system: COLO 205 colon
RXF 393 renal = test system: RXF 393 renal
A498 renal = test system: A498 renal
SK-OV-3 ovarian = test system: SK-OV-3 ovarian
A549 NSCLC = test system: A549 NSCLC
MCF7 breast = test system: MCF7 breast
OVCAR-5 ovarian = test system: OVCAR-5 ovarian
CAKI-1 renal = test system: CAKI-1 renal
PC-3 prostate = test system: PC-3 prostate
HCC-2998 colon = test system: HCC-2998 colon
SK-MEL-5 melanoma = test system: SK-MEL-5 melanoma
HCT-116 colon = test system: HCT-116 colon
OVCAR-8 ovarian = test system: OVCAR-8 ovarian
SK-MEL-2 melanoma = test system: SK-MEL-2 melanoma
NCI-H522 lung = test system: NCI-H522 lung
UACC-257 melanoma = test system: UACC-257 melanoma
SF-268 CNS = test system: SF-268 CNS
EKVX NSCLC = test system: EKVX NSCLC
HS 578T breast = test system: HS 578T breast
ACHN renal = test system: ACHN renal
UACC-62 melanoma = test system: UACC-62 melanoma
CCRF-CEM leukemia = test system: CCRF-CEM leukemia
DU-145 prostate = test system: DU-145 prostate
NCI-H460 lung = test system: NCI-H460 lung
HOP-62 NSCLC = test system: HOP-62 NSCLC
MDA-MB-435 = test system: MDA-MB-435
SK-MEL-28 melanoma = test system: SK-MEL-28 melanoma
TK-10 renal = test system: TK-10 renal
K-562 leukemia = test system: K-562 leukemia
IGROV1 ovarian = test system: IGROV1 ovarian
NCI-H226 lung = test system: NCI-H226 lung
SNB-75 CNS = test system: SNB-75 CNS
MDA-MB-231 breast = test system: MDA-MB-231 breast
BT-549 breast = test system: BT-549 breast
UO-31 renal = test system: UO-31 renal
M14 melanoma = test system: M14 melanoma
HL-60(TB) leukemia = test system: HL-60(TB) leukemia
MDA-MB-468 breast = test system: MDA-MB-468 breast
HT29 colon = test system: HT29 colon
SF-539 CNS = test system: SF-539 CNS
SR leukemia = test system: SR leukemia
SNB-19 CNS = test system: SNB-19 CNS
MALME-3M melanoma = test system: MALME-3M melanoma
HCT-15 colon = test system: HCT-15 colon

Question: With `O=C1Nc2ccc(Cl)cc2/C1=C/c1ccc(OCc2ccc(Br)cc2F)cc1` as the molecule, how does the GI50 (T-47D breast) read?
Answer: 10.9 µM

Question: And the TGI (T-47D breast)?
Answer: 30.8 µM

Question: What about the GI50 (SF-295 CNS) of the same molecule?
Answer: 3.24 µM

Question: And the TGI (SF-295 CNS)?
Answer: 12.1 µM

Question: And the GI50 (SW-620 colon)?
Answer: 2.8 µM

Question: And the TGI (SW-620 colon)?
Answer: 10.3 µM

Question: And the GI50 (786-0 renal)?
Answer: 3.06 µM

Question: And the TGI (786-0 renal)?
Answer: 8.32 µM

Question: And the GI50 (OVCAR-4 ovarian)?
Answer: 2.06 µM

Question: What about the TGI (OVCAR-4 ovarian) of the same molecule?
Answer: 4.67 µM

Question: What about the GI50 (U251 CNS) of the same molecule?
Answer: 2.03 µM

Question: And the TGI (U251 CNS)?
Answer: 4.07 µM

Question: And the GI50 (KM12 colon)?
Answer: 8.56 µM

Question: What about the TGI (KM12 colon) of the same molecule?
Answer: 25.7 µM

Question: What about the GI50 (OVCAR-3 ovarian) of the same molecule?
Answer: 3.28 µM

Question: What about the TGI (OVCAR-3 ovarian) of the same molecule?
Answer: 10.1 µM

Question: And the GI50 (MOLT-4 leukemia)?
Answer: 4.63 µM

Question: And the TGI (MOLT-4 leukemia)?
Answer: 19.2 µM

Question: And the GI50 (SN12C renal)?
Answer: 4.62 µM

Question: What about the TGI (SN12C renal) of the same molecule?
Answer: 18.7 µM

Question: What about the GI50 (NCI-H23 lung) of the same molecule?
Answer: 2.98 µM

Question: And the TGI (NCI-H23 lung)?
Answer: 12.2 µM

Question: What about the GI50 (HOP-92 NSCLC) of the same molecule?
Answer: 2.12 µM

Question: What about the TGI (HOP-92 NSCLC) of the same molecule?
Answer: 6.91 µM

Question: And the GI50 (RPMI-8226 leukemia)?
Answer: 9.01 µM

Question: What about the TGI (RPMI-8226 leukemia) of the same molecule?
Answer: 24 µM

Question: And the GI50 (LOX IMVI melanoma)?
Answer: 2.88 µM

Question: And the TGI (LOX IMVI melanoma)?
Answer: 10 µM

Question: And the GI50 (COLO 205 colon)?
Answer: 9.18 µM

Question: And the TGI (COLO 205 colon)?
Answer: 37.5 µM

Question: And the GI50 (RXF 393 renal)?
Answer: 4.73 µM

Question: And the TGI (RXF 393 renal)?
Answer: 18.1 µM

Question: And the GI50 (A498 renal)?
Answer: 2.45 µM

Question: And the TGI (A498 renal)?
Answer: 5.42 µM

Question: And the GI50 (SK-OV-3 ovarian)?
Answer: 4.2 µM

Question: What about the TGI (SK-OV-3 ovarian) of the same molecule?
Answer: 17.9 µM

Question: What about the GI50 (A549 NSCLC) of the same molecule?
Answer: 3.25 µM

Question: What about the TGI (A549 NSCLC) of the same molecule?
Answer: 11.3 µM

Question: And the GI50 (MCF7 breast)?
Answer: 2.95 µM

Question: What about the TGI (MCF7 breast) of the same molecule?
Answer: 14.2 µM

Question: What about the GI50 (OVCAR-5 ovarian) of the same molecule?
Answer: 13 µM

Question: And the TGI (OVCAR-5 ovarian)?
Answer: 42.9 µM

Question: And the GI50 (CAKI-1 renal)?
Answer: 2.05 µM

Question: And the TGI (CAKI-1 renal)?
Answer: 7.06 µM

Question: What about the GI50 (PC-3 prostate) of the same molecule?
Answer: 3.79 µM

Question: What about the TGI (PC-3 prostate) of the same molecule?
Answer: 16.6 µM

Question: And the GI50 (HCC-2998 colon)?
Answer: 20.5 µM

Question: What about the TGI (HCC-2998 colon) of the same molecule?
Answer: 65.7 µM

Question: What about the GI50 (SK-MEL-5 melanoma) of the same molecule?
Answer: 10.8 µM

Question: What about the TGI (SK-MEL-5 melanoma) of the same molecule?
Answer: 23.1 µM

Question: And the GI50 (HCT-116 colon)?
Answer: 3.13 µM

Question: What about the TGI (HCT-116 colon) of the same molecule?
Answer: 10.7 µM

Question: What about the GI50 (OVCAR-8 ovarian) of the same molecule?
Answer: 3.74 µM

Question: What about the TGI (OVCAR-8 ovarian) of the same molecule?
Answer: 15.1 µM

Question: What about the GI50 (SK-MEL-2 melanoma) of the same molecule?
Answer: 15.5 µM

Question: What about the TGI (SK-MEL-2 melanoma) of the same molecule?
Answer: 30.1 µM

Question: What about the GI50 (NCI-H522 lung) of the same molecule?
Answer: 3.31 µM

Question: What about the TGI (NCI-H522 lung) of the same molecule?
Answer: 11.1 µM

Question: What about the GI50 (UACC-257 melanoma) of the same molecule?
Answer: 13 µM

Question: And the TGI (UACC-257 melanoma)?
Answer: 27.6 µM

Question: And the GI50 (SF-268 CNS)?
Answer: 5.01 µM

Question: What about the TGI (SF-268 CNS) of the same molecule?
Answer: 17.7 µM

Question: What about the GI50 (EKVX NSCLC) of the same molecule?
Answer: 4.51 µM

Question: And the TGI (EKVX NSCLC)?
Answer: 22.1 µM

Question: What about the GI50 (HS 578T breast) of the same molecule?
Answer: 2.37 µM

Question: And the TGI (HS 578T breast)?
Answer: 6.69 µM

Question: And the GI50 (ACHN renal)?
Answer: 2.19 µM

Question: What about the TGI (ACHN renal) of the same molecule?
Answer: 5.29 µM

Question: And the GI50 (UACC-62 melanoma)?
Answer: 3.72 µM

Question: And the TGI (UACC-62 melanoma)?
Answer: 15.4 µM

Question: And the GI50 (CCRF-CEM leukemia)?
Answer: 4.55 µM

Question: And the TGI (CCRF-CEM leukemia)?
Answer: 17.7 µM

Question: What about the GI50 (DU-145 prostate) of the same molecule?
Answer: 10.2 µM

Question: What about the TGI (DU-145 prostate) of the same molecule?
Answer: 26.6 µM

Question: And the GI50 (NCI-H460 lung)?
Answer: 2.1 µM

Question: And the TGI (NCI-H460 lung)?
Answer: 4.38 µM

Question: And the GI50 (HOP-62 NSCLC)?
Answer: 3.14 µM

Question: And the TGI (HOP-62 NSCLC)?
Answer: 11.7 µM

Question: And the GI50 (MDA-MB-435)?
Answer: 9.81 µM

Question: What about the TGI (MDA-MB-435) of the same molecule?
Answer: 22.2 µM

Question: What about the GI50 (SK-MEL-28 melanoma) of the same molecule?
Answer: 5.42 µM

Question: And the TGI (SK-MEL-28 melanoma)?
Answer: 17.4 µM

Question: What about the GI50 (TK-10 renal) of the same molecule?
Answer: 6.75 µM

Question: And the TGI (TK-10 renal)?
Answer: 22.9 µM

Question: And the GI50 (K-562 leukemia)?
Answer: 3.87 µM

Question: What about the TGI (K-562 leukemia) of the same molecule?
Answer: 15.3 µM

Question: What about the GI50 (IGROV1 ovarian) of the same molecule?
Answer: 4.11 µM

Question: And the TGI (IGROV1 ovarian)?
Answer: 15.5 µM

Question: What about the GI50 (NCI-H226 lung) of the same molecule?
Answer: 2.66 µM

Question: What about the TGI (NCI-H226 lung) of the same molecule?
Answer: 11.5 µM

Question: And the GI50 (SNB-75 CNS)?
Answer: 2 µM

Question: And the TGI (SNB-75 CNS)?
Answer: 7.32 µM

Question: What about the GI50 (MDA-MB-231 breast) of the same molecule?
Answer: 3.21 µM

Question: What about the TGI (MDA-MB-231 breast) of the same molecule?
Answer: 12.2 µM

Question: What about the GI50 (BT-549 breast) of the same molecule?
Answer: 9.48 µM

Question: What about the TGI (BT-549 breast) of the same molecule?
Answer: 26.8 µM

Question: And the GI50 (UO-31 renal)?
Answer: 1.46 µM

Question: And the TGI (UO-31 renal)?
Answer: 6.65 µM

Question: And the GI50 (M14 melanoma)?
Answer: 4.97 µM

Question: And the TGI (M14 melanoma)?
Answer: 18.6 µM

Question: And the GI50 (HL-60(TB) leukemia)?
Answer: 10.9 µM

Question: What about the TGI (HL-60(TB) leukemia) of the same molecule?
Answer: 26.1 µM

Question: And the GI50 (MDA-MB-468 breast)?
Answer: 8.46 µM

Question: And the TGI (MDA-MB-468 breast)?
Answer: 21.9 µM

Question: What about the GI50 (HT29 colon) of the same molecule?
Answer: 12.9 µM

Question: And the TGI (HT29 colon)?
Answer: 29.1 µM

Question: And the GI50 (SF-539 CNS)?
Answer: 6.32 µM

Question: And the TGI (SF-539 CNS)?
Answer: 19.1 µM

Question: What about the GI50 (SR leukemia) of the same molecule?
Answer: 2.72 µM

Question: And the TGI (SR leukemia)?
Answer: 9.16 µM

Question: And the GI50 (SNB-19 CNS)?
Answer: 4.06 µM

Question: What about the TGI (SNB-19 CNS) of the same molecule?
Answer: 15.7 µM

Question: And the GI50 (MALME-3M melanoma)?
Answer: 2.76 µM

Question: What about the TGI (MALME-3M melanoma) of the same molecule?
Answer: 9.8 µM

Question: What about the GI50 (HCT-15 colon) of the same molecule?
Answer: 5.77 µM

Question: What about the TGI (HCT-15 colon) of the same molecule?
Answer: 21 µM

From PubChem BioAssay (NCI)
